Data published in US8614215B2, “Quinoxaline inhibitors of phosphoinositide-3-kinases (PI3Ks)” (Merck Serono SA, priority 2007, dated 2013).

The compounds below were run on Human recombinant GST-PI3K (assay: PI3K induced-lipid phosphorylation, neomycin-SPA scintillation proximity assay). Conditions: Human recombinant GST-PI3K, SPA.
Type: biochemical
Excerpt: The efficacy of compounds of the invention in inhibiting the PI3K induced-lipid phosphorylation may be tested in the following binding assay. The assay combines the scintillation proximity assay technology (SPA, Amersham) with the capacity of neomycin (a polycationic antibiotic) to bind phospholipids with high affinity and specificity. The Scintillation Proximity Assay is based on the properties of weakly emitting isotopes (such as ^3H, ^125I, ^33P). Coating SPA beads with neomycin allows the detection of phosphorylated lipid substrates after incubation with recombinant PI3K and radioactive ATP in the same well, by capturing the radioactive phospholipids to the SPA beads through their specific binding to neomycin.
To a 96 wells MTP containing 10 μL of the test compound of Formula (I) (solubilized in 10% DMSO; […]), the following assay components are added: 1) 10 μL of lipid micelles 2) 20 μL of Kinase buffer ([^33P]γATP162 μM/300 nCi, MgCl2 2.5 mM, DTT 2.5 mM, Na3VO4 25 uM in Hepes 40 mM, pH 7.4) and 3) 10 μL (100 ng) of Human recombinant GST-PI3K (in Hepes 40 mM, pH 7.4, ethylenglycol 4%). After incubation at room temperature for 120 minutes, with gentle agitation, the reaction is stopped by addition of 200 μL of a solution containing 250 μg of neomycin-coated PVT SPA beads, ATP 60 mM and EDTA 6.2 mM in PBS. The assay is further incubated at room temperature for 60 minutes with gentle agitation to allow binding of phospholipids to neomycin-SPA beads. After precipitation of the neomycin-coated PVT SPA beads for 5 minutes at 1500×g, radioactive PtdIns(3)P is quantified by scintillation counting in a Wallac MicroBeta™ plate counter.
The values indicated in Table I below refer to the IC50 (μM) with respect to PI3K, i.e. the amount necessary to achieve 50% inhibition of said target. Said values show a considerable inhibitory potency of quinoxaline compounds with regard to PI3K.

Row | IC50 [nM] | Compound
1 | 160 | COc1ccc(CC2CCN(S(C)(=O)=O)CC2)c(Nc2nc3ccccc3nc2NS(=O)(=O)c2cn(C)cn2)c1 [Example 97, N-{3-[(5-methoxy-2-{[1-(methylsulfonyl)piperidin-4-yl]methyl}phenyl)amino]quinoxalin-2-yl}-1-methyl-1H-imidazole-4-sulfonamide]
2 | 11 | COc1ccc(CCCN(C)C)c(Nc2nc3ccccc3nc2NS(=O)(=O)c2cn(C)cn2)c1 [Example 31, N-[3-({2-[3-(Dimethylamino)propyl]-5-methoxyphenyl}amino)quinoxalin-2-yl]-1-methyl-1H-imidazole-4-sulfonamide]
3 | 130 | COc1ccc(CCCO)c(Nc2nc3ccccc3nc2NS(=O)(=O)C2CCS(=O)(=O)C2)c1 (stereo not shown) [Example 63, N-(3-{[2-(3-Hydroxypropyl)-5-methoxyphenyl]amino}quinoxalin-2-yl)tetrahydrothiophene-3-sulfonamide 1,1-dioxide]
4 | 3340 | COc1cc(Nc2nc3ccccc3nc2NS(=O)(=O)c2cccnc2)cc(C(=O)N2CCN(C)CC2)c1 [Example 4, N-[3-({3-methoxy-5-[(4-methylpiperazin-1-yl)carbonyl]phenyl}amino)quinoxalin-2-yl]pyridine-3-sulfonamide]
5 | 28 | COc1ccc(CCCO)c(Nc2nc3ccccc3nc2NS(=O)(=O)c2cn(C)c(CN(C)C)n2)c1 [Example 47, 2-[(Dimethylamino)methyl]-N-(3-{[2-(3-hydroxypropyl)-5-methoxyphenyl]amino}quinoxalin-2-yl)-1-methyl-1H-imidazole-4-sulfonamide]
6 | 550 | COc1ccc(C(CO)CO)c(Nc2nc3ccccc3nc2NS(=O)(=O)c2cn(C)cn2)c1 [Example 29, N-[3-({2-[2-Hydroxy-1-(hydroxymethyl)ethyl]-5-methoxyphenyl}amino)quinoxalin-2-yl]-1-methyl-1H-imidazole-4-sulfonamide]
7 | 250 | COc1ccc(CCO)c(Nc2nc3ccccc3nc2NS(=O)(=O)c2ccc(C(=O)N(C)C)cc2)c1 [Example 32, 4-{[(3-{[2-(2-Hydroxyethyl)-5-methoxyphenyl]amino}quinoxalin-2-yl)amino]sulfonyl}-N,N-dimethylbenzamide]
8 | 100 | COc1ccc(CC2CCSCC2)c(Nc2nc3ccccc3nc2NS(=O)(=O)c2cn(C)cn2)c1 [Example 25, N-(3-{[5-methoxy-2-(tetrahydro-2H-thiopyran-4-ylmethyl)phenyl]amino}quinoxalin-2-yl)-1-methyl-1H-imidazole-4-sulfonamide]
9 | 760 | COc1cc(Nc2nc3ccccc3nc2NS(=O)(=O)c2cn(C)cn2)cc(C(=O)N(C)C)c1 [Example 75, 3-Methoxy-N,N-dimethyl-5-[(3-{[(1-methyl-1H-imidazol-4-yl)sulfonyl]amino}quinoxalin-2-yl)amino]benzamide]
10 | 450 | COc1ccc(CC2CCCCC2)c(Nc2nc3ccccc3nc2NS(=O)(=O)c2cn(C)cn2)c1 [Example 20, N-(3-{[2-(cyclohexylmethyl)-5-methoxyphenyl]amino}quinoxalin-2-yl)-1-methyl-1H-imidazole-4-sulfonamide]
11 | 190 | COc1ccc(CCS(C)(=O)=O)c(Nc2nc3ccccc3nc2NS(=O)(=O)c2c(C)noc2C)c1 [Example 54, N-[3-({5-Methoxy-2-[2-(methylsulfonyl)ethyl]phenyl}amino)quinoxalin-2-yl]-3,5-dimethylisoxazole-4-sulfonamide]
12 | 12 | COc1ccc(CCCO)c(Nc2nc3ccccc3nc2NS(=O)(=O)c2cccc(NC(=O)CO)c2)c1 [Example 102, 2-Hydroxy-N-(3-{[(3-{[2-(3-hydroxypropyl)-5-methoxyphenyl]amino}quinoxalin-2-yl)amino]sulfonyl}phenyl)acetamide]
13 | 26 | COc1ccc(CCO)c(Nc2nc3ccccc3nc2NS(=O)(=O)c2ccc(CN(C)C)cc2)c1 [Example 89, 4-[(Dimethylamino)methyl]-N-(3-{[2-(2-hydroxyethyl)-5-methoxyphenyl]amino}quinoxalin-2-yl)benzenesulfonamide]
14 | 150 | COc1ccc(CC2CCOCC2)c(Nc2nc3ccccc3nc2NS(=O)(=O)c2ccc(F)cc2)c1 [Example 10, 4-fluoro-N-(3-{[5-methoxy-2-(tetrahydro-2H-pyran-4-ylmethyl)phenyl]amino}quinoxalin-2-yl)benzenesulfonamide]
15 | 100 | COc1ccc(CCOC(=O)[C@@H](N)C(C)C)c(Nc2nc3ccccc3nc2NS(=O)(=O)c2cn(C)cn2)c1 [Example 104]
16 | 21 | COc1ccc(CCCO)c(Nc2nc3ccccc3nc2NS(=O)(=O)c2cn(C)cn2)c1 [Example 28, N-(3-{[2-(3-Hydroxypropyl)-5-methoxyphenyl]amino}quinoxalin-2-yl)-1-methyl-1H-imidazole-4-sulfonamide]
17 | 200 | COCCc1ccc(OC)cc1Nc1nc2ccccc2nc1NS(=O)(=O)c1cn(C)c(CS(C)(=O)=O)n1 [Example 79, N-(3-{[5-Methoxy-2-(2-methoxyethyl)phenyl]amino}quinoxalin-2-yl)-1-methyl-2-[(methylsulfonyl)methyl]-1H-imidazole-4-sulfonamide]
18 | 160 | COc1ccc(CCS(C)(=O)=O)c(Nc2nc3ccccc3nc2NS(=O)(=O)C(C)C)c1 [Example 52, N-[3-({5-Methoxy-2-[2-(methylsulfonyl)ethyl]phenyl}amino)quinoxalin-2-yl]propane-2-sulfonamide]
19 | 26 | COc1ccc(CC2CCC(O)CC2)c(Nc2nc3ccccc3nc2NS(=O)(=O)c2ccc(CN(C)C)cc2)c1 (stereo not shown) [Example 84, 4-[(dimethylamino)methyl]-N-[3-({2-[(4-hydroxycyclohexyl)methyl]-5-methoxyphenyl}amino)quinoxalin-2-yl]benzenesulfonamide]
20 | 100 | COc1ccc(CC2CCN(C(=O)CN(C)C)CC2)c(Nc2nc3ccccc3nc2NS(=O)(=O)c2cn(C)cn2)c1 [Example 96, N-{3-[(2-{[1-(N,N-dimethylglycyl)piperidin-4-yl]methyl}-5-methoxyphenyl)amino]quinoxalin-2-yl}-1-methyl-1H-imidazole-4-sulfonamide]
21 | 84 | COc1ccc(CCS(C)(=O)=O)c(Nc2nc3ccccc3nc2NS(=O)(=O)c2cn(C)cn2)c1 [Example 40, N-[3-({5-Methoxy-2-[2-(methylsulfonyl)ethyl]phenyl}amino)quinoxalin-2-yl]-1-methyl-1H-imidazole-4-sulfonamide]
22 | 18 | COc1ccc(CC2CCC(O)CC2)c(Nc2nc3ccccc3nc2NS(=O)(=O)c2cn(C)cn2)c1 (stereo not shown) [Example 22, N-[3-({2-[(4-hydroxycyclohexyl)methyl]-5-methoxyphenyl}amino)quinoxalin-2-yl]-1-methyl-1H-imidazole-4-sulfonamide]
23 | 286 | COc1ccc(CCO)c(Nc2nc3ccccc3nc2NS(=O)(=O)c2c(C)noc2C)c1 [Example 43]
24 | 300 | COc1ccc(S(=O)(=O)NCCO)c(Nc2nc3ccccc3nc2NS(=O)(=O)CCCS(C)(=O)=O)c1 [Example 64, N-(2-Hydroxyethyl)-4-methoxy-2-{[3-({[3-(methylsulfonyl)propyl]sulfonyl}amino)quinoxalin-2-yl]amino}benzenesulfonamide]
25 | 72 | COc1ccc(CCCO)c(Nc2nc3ccccc3nc2NS(=O)(=O)C(C)C)c1 [Example 50, N-(3-{[2-(3-Hydroxyproxyl)-5-methoxypheyl]amino}quinoxalin-2-yl)propane-2-sulfonamide]
